Test results taken from the NIST ThermoML archive (doi:10.1021/je060271a).

Conditions: 323.15 K, Liquid, Vibrating tube method

CCCCCC(=O)OCC(COC(=O)CCCCC)(COC(=O)CCCCC)COC(=O)CCCCC [pentaerythritol tetrahexanoate]
Conditions | mass density [kg/m3]
616.8 kPa | 973.1
618.6 kPa | 973.1
620.6 kPa | 973.1
623.1 kPa | 973.3
625.3 kPa | 973.2
627.3 kPa | 973.1
629.2 kPa | 973.2
631.2 kPa | 973.1
633 kPa | 973.1
634.7 kPa | 973.1
637.3 kPa | 973.1
639.4 kPa | 973.1
641.7 kPa | 973
643.9 kPa | 973
659.4 kPa | 973.1
662 kPa | 973.2
664.3 kPa | 973.2
666.7 kPa | 973.1
668.8 kPa | 973.2
671.2 kPa | 973.2
674 kPa | 973.1
675.9 kPa | 973.1
678.5 kPa | 973.1
681.8 kPa | 973.2
684.1 kPa | 973.2
699.5 kPa | 973.1
702.1 kPa | 973.1
704.4 kPa | 973.1
707.2 kPa | 973.2
709.1 kPa | 973.2
712 kPa | 973.1
741.4 kPa | 973.1
744 kPa | 973.3
746.6 kPa | 973.1
749.6 kPa | 973.2
752.5 kPa | 973.1
755.1 kPa | 973.3
757.9 kPa | 973.2
760.3 kPa | 973.2
765.9 kPa | 973.2
768.5 kPa | 973.2
772.1 kPa | 973.2
774.9 kPa | 973.1
777.5 kPa | 973.3
780 kPa | 973.2
783.1 kPa | 973.2
785.3 kPa | 973.1
788.3 kPa | 973.3
791.4 kPa | 973.2
794.4 kPa | 973.2
796 kPa | 973.2
798.4 kPa | 973.3
815.2 kPa | 973.3
817.7 kPa | 973.3
821 kPa | 973.3
824.1 kPa | 973.4
827.1 kPa | 973.3
830.2 kPa | 973.2
833.5 kPa | 973.3
836.8 kPa | 973.2
839.5 kPa | 973.3
842.8 kPa | 973.2
845.5 kPa | 973.2
849.1 kPa | 973.3
851.9 kPa | 973.2
855.5 kPa | 973.3
871.5 kPa | 973.2
875.2 kPa | 973.2
877.8 kPa | 973.2
880.9 kPa | 973.3
884.5 kPa | 973.3
887.3 kPa | 973.2
890.8 kPa | 973.2
894.6 kPa | 973.2
897.6 kPa | 973.2
900.3 kPa | 973.2
904 kPa | 973.3
906.8 kPa | 973.3
910.8 kPa | 973.3
913.5 kPa | 973.3
920.1 kPa | 973.2
926.9 kPa | 973.3
930.6 kPa | 973.3
933.3 kPa | 973.3
936.1 kPa | 973.2
940 kPa | 973.3
942.9 kPa | 973.4
947.1 kPa | 973.3
950.7 kPa | 973.3
953.5 kPa | 973.3
957 kPa | 973.4
960.8 kPa | 973.3
963.6 kPa | 973.4
968.1 kPa | 973.2
971.9 kPa | 973.2
975.6 kPa | 973.4
978.9 kPa | 973.4
983 kPa | 973.3
987 kPa | 973.3
991 kPa | 973.4
995 kPa | 973.4
999.9 kPa | 973.3
1003.3 kPa | 973.4
1007 kPa | 973.4
1011.7 kPa | 973.4
1016 kPa | 973.4
1062.4 kPa | 973.4
1065.9 kPa | 973.3
1069.5 kPa | 973.4
1073.9 kPa | 973.3
1077.3 kPa | 973.4
1082 kPa | 973.5
1085.7 kPa | 973.4
1090.4 kPa | 973.5
1094.2 kPa | 973.5
1099 kPa | 973.5
1103 kPa | 973.5
1128.6 kPa | 973.4
1132.2 kPa | 973.4
1137.1 kPa | 973.4
1140.7 kPa | 973.5
1145.6 kPa | 973.5
1149.6 kPa | 973.5
1154.3 kPa | 973.5
1159 kPa | 973.5
1163.8 kPa | 973.5
1243.7 kPa | 973.6
1248 kPa | 973.6
1253.4 kPa | 973.5
1258.3 kPa | 973.4
1263.5 kPa | 973.5
1269.2 kPa | 973.5
1273.9 kPa | 973.7
1278.6 kPa | 973.5
1284.5 kPa | 973.6
1289.2 kPa | 973.6
1294.7 kPa | 973.5
1299.6 kPa | 973.6
1305.5 kPa | 973.5
1310 kPa | 973.5
1315.4 kPa | 973.5
1319.9 kPa | 973.5
1325.8 kPa | 973.5
1331.7 kPa | 973.6
1411.8 kPa | 973.6
